Drawing on PMC8270338, “Exploring New Scaffolds for the Dual Inhibition of HIV-1 RT Polymerase and Ribonuclease Associated Functions” (Molecules, 2021), this text covers melting point and IC50 for 17 compounds.

Structures can show the parent of a compound that is named as a salt. Where two headings read alike, the source gives them in different places.

For data set [1], the target named is T1, HIV-1 RT-associated RNase H (Human immunodeficiency virus type 1 group M subtype B, UniProt P04585).
T1 construct: The full length HIV-1 RT group M subtype B was expressed and purified; made in house
The experiment in a line: HIV-1 RT-associated DNA polymerase-independent RNase H activity determination. The note with it: full length HIV-1 wt RT, no pre-incubation with the enzyme, 1 h at 37 °C; concentration reducing RNase H activity by 50%. The class given is biochemical, HIV-1 group M subtype B. The protocol: The full length HIV-1 RT group M subtype B was expressed and purified as previously described. The HIV RT-associated RNase H activity was measured as described. […] Reactions were stopped by the addition of EDTA and products were measured with a Perkin–Elmer Victor 3 multilabel counter plate reader (Waltham, MA, USA) at excitation–emission wavelength of 490/528 nm (Table 1).

For data set [2], the target named is T2, HIV-1 RT-associated RNA-dependent DNA-polymerase (RDDP) (Human immunodeficiency virus type 1 group M subtype B, UniProt P04585).
T2 construct: The full length HIV-1 RT group M subtype B was expressed and purified; made in house
Kind of data set: biochemical. Details: species or system HIV-1 group M subtype B. The protocol: The HIV-1 RT-associated RNA-Dependent DP activity was measured as previously described. […] The enzymatic reaction was stopped by the addition of EDTA.

In the case of `COc1ccc(-c2ccccc2C(N)=O)cc1/C=N/Nc1nc(-c2ccc([N+](=O)[O-])cc2)cs1` (as salt: bromide) [EMAC2063, 2-{3-[(2-{4-[4-nitrophenyl]-1,3-thiazol-2-yl}hydrazin-1-ylidene)methyl]-4-methoxyphenyl}benzamide bromide], the melting point (in general, the temperature of the solid-liquid transition) was 208 °C (dec.).

Consider `COc1ccc(-c2csc(NN=Cc3cc(-c4ccccc4)ccc3OC)n2)cc1` [EMAC2056, 2-[2-[(2-Methoxy-5-Phenylphenyl)methylidene]hydrazin-1-yl]-4-(4-Methoxyphenyl)-1,3-Thiazole Bromide], for which the figures for the half-inhibitory concentration (IC50) in data set [1] and in data set [2] (read-out: RDDP IC50) were 19.5 ± 5.5 µM and 36 ± 5 µM, respectively. Consider `COc1ccc(-c2ccccc2)cc1C=NNc1nc(-c2ccc(Cl)c(Cl)c2)cs1` [EMAC2057, 4-(3,4-dichlorophenyl)-2-[2-[(2-methoxy-5-phenylphenyl)methylidene]hydrazin-1-yl]-1,3-thiazole bromide], for which the IC50 (as a rule, the point on the concentration scale where inhibition reaches its midpoint) stood at 57 ± 5 µM in data set [1] and 88 ± 12 µM in data set [2] (read-out: RDDP IC50). As for `COc1ccc(-c2ccccc2)cc1C=NNc1nc(-c2cccc(Cl)c2)cs1` [EMAC2058, 4-(3-chlorophenyl)-2-[2-[(2-methoxy-5-phenylphenyl)methylidene]hydrazin-1-yl]-1,3-thiazole bromide], the IC50 in data set [1] was 46 ± 1 µM; in data set [2] (read-out: RDDP IC50) it was 56.5 ± 9.5 µM. Consider `COc1ccc(-c2ccccc2)cc1C=NNc1nc(-c2ccc([N+](=O)[O-])cc2)cs1` [EMAC2059, 4-(4-nitrophenyl)-2-[2-[(2-methoxy-5-phenylphenyl)methylidene]hydrazin-1-yl]-1,3-thiazole bromide], for which the half-maximal inhibitory concentration (IC50) turned out to be 12.8 ± 4.3 µM in data set [1] and 39.5 ± 11.5 µM in data set [2] (read-out: RDDP IC50). In the same order, the values of `COc1ccc(-c2csc(N/N=C/c3cc(-c4ccccc4C(N)=O)ccc3OC)n2)cc1` [EMAC2060, 2-{4-methoxy-3-[(1E)-{2-[4-(4-methoxyphenyl)-1,3-thiazol-2-yl]hydrazin-1-ylidene}methyl]phenyl}benzamide bromide] are 21.5 ± 3.5 µM and 27 ± 1 µM. Regarding `COc1ccc(-c2ccccc2C(N)=O)cc1C=NNc1nc(-c2ccc(Cl)c(Cl)c2)cs1` [EMAC2061, 2-{3-[{2-[4-(3,4-dichlorophenyl)-1,3-thiazol-2-yl]hydrazin-1-ylidene}methyl]-4-methoxyphenyl}benzamide bromide], the half-inhibitory concentration (IC50) in data set [1] came out at 6.5 ± 2.5 µM; in data set [2] (read-out: RDDP IC50), 19.5 ± 0.5 µM. In the case of `COc1ccc(-c2ccccc2C(N)=O)cc1C=NNc1nc(-c2ccc(Cl)cc2)cs1` [EMAC2062, 2-{3-[{2-[4-(4-chlorophenyl)-1,3-thiazol-2-yl]hydrazin-1-ylidene}methyl]-4-methoxyphenyl}benzamide bromide], the IC50 is 8 ± 2 µM in data set [1] and 17 ± 2 µM in data set [2] (read-out: RDDP IC50). As to `COc1ccc(-c2ccccc2C(N)=O)cc1/C=N/Nc1nc(-c2ccc([N+](=O)[O-])cc2)cs1` [EMAC2063, 2-{3-[(2-{4-[4-nitrophenyl]-1,3-thiazol-2-yl}hydrazin-1-ylidene)methyl]-4-methoxyphenyl}benzamide bromide], the 50% inhibitory concentration (IC50) in data set [1] turned out to be 4.5 ± 0.5 µM; in data set [2], 8 µM. Turning to `COc1ccc(-c2csc(NN=Cc3cc(-c4ccccc4Br)ccc3OC)n2)cc1` [EMAC2064, 2-{[5-(2-bromophenyl)-2-methoxyphenyl]methylidene}hydrazin-1-yl]-4-(4-methoxyphenyl)-1,3-thiazole bromide], the IC50 in data set [1] was 13 ± 4 µM; in data set [2] (read-out: RDDP IC50), 32.5 ± 2.5 µM. In the same order, the values of `COc1ccc(-c2ccccc2Br)cc1C=NNc1nc(-c2ccc(Cl)c(Cl)c2)cs1` [EMAC2065, 2-{[5-(2-bromophenyl)-2-methoxyphenyl]methylidene}hydrazin-1-yl]-4-(3,4-dicholophenyl)-1,3-thiazole bromide] are 15 ± 1 µM and 53.5 ± 15.5 µM. `COc1ccc(-c2ccccc2Br)cc1C=NNc1nc(-c2ccc(Cl)cc2)cs1` [EMAC2066, 2-{[5-(2-bromophenyl)-2-methoxyphenyl]methylidene}hydrazin-1-yl]-4-(4-cholophenyl)-1,3-thiazole bromide]: the results for the half-inhibitory concentration (IC50) in data set [1] and in data set [2] (read-out: RDDP IC50) were 47 ± 3 µM and 71.5 ± 6.5 µM, respectively. As for `COc1ccc(-c2ccccc2Br)cc1C=NNc1nc(-c2ccc([N+](=O)[O-])cc2)cs1` [EMAC2067, 2-{[5-(2-bromophenyl)-2-methoxyphenyl]methylidene}hydrazin-1-yl]-4-(4-nitrophenyl)-1,3-thiazole bromide], the IC50 in data set [1] came to 27 ± 5 µM; in data set [2] (read-out: RDDP IC50) it was 30 ± 3 µM. In the case of `COc1ccc(-c2csc(NN=Cc3cc(-c4ccc(F)cc4)ccc3OC)n2)cc1` [EMAC2068, 2-[2-{[5-(4-fluorophenyl)-2-methoxyphenyl]methylidene}hydrazin-1-yl]-4-(4-methoxyphenyl)-1,3-thiazole bromide], the IC50 was determined as 29.5 ± 3.5 µM in data set [1] and 61.5 ± 8.5 µM in data set [2] (read-out: RDDP IC50). With `COc1ccc(-c2ccc(F)cc2)cc1C=NNc1nc(-c2ccc(Cl)c(Cl)c2)cs1` [EMAC2069, 4-(3,4-dichlorophenyl)-2-[-2-{[5-(4-fluorophenyl)-2-methoxyphenyl]methylidene}hydrazin-1-yl]-1,3-thiazole bromide], the IC50 in data set [1] is 52.5 ± 10.5 µM; in data set [2] (read-out: RDDP IC50), 66 ± 2 µM. Take `COc1ccc(-c2ccc(F)cc2)cc1C=NNc1nc(-c2ccc(Cl)cc2)cs1` [EMAC2070, 4-(4-chlorophenyl)-2-[-2-{[5-(4-fluorophenyl)-2-methoxyphenyl]methylidene}hydrazin-1-yl]-1,3-thiazole bromide]: the half-inhibitory concentration (IC50) is 55.5 ± 1.5 µM in data set [1] and 59 ± 6 µM in data set [2] (read-out: RDDP IC50). For the compound `COc1ccc(-c2ccc(F)cc2)cc1C=NNc1nc(-c2ccc([N+](=O)[O-])cc2)cs1` [EMAC2071, [(4-{2-[2-{[5-(4-fluorophenyl)-2-methoxyphenyl]methylidene}hydrazin-1-yl]-1,3-thiazol-4-yl}phenyl)nitroso]oxidanol bromide], the IC50 in data set [1] came out at 19 ± 1 µM; in data set [2] (read-out: RDDP IC50), 47.5 ± 11.5 µM.
